Source: patent US20250195490A1, “ALPHA-METHYLENE AND AMINOMETHYL LACTONES AND LACTAMS FOR TREATMENT OF CLOSTRIDIOIDES DIFFICILE INFECTION (CDI)” (Purdue Research Foundation, priority 2022, published 2025)
Converted amounts (≈) assume the structure as drawn. Like-named read-outs stand apart in the source and are kept apart here.

What was measured:
[1] = system: hypervirulent Clostridioides difficile strains; experiment: MIC against hypervirulent Clostridioides difficile strains; type: cell-based
Procedure: (§1) The antibacterial activity of compounds 48, 50, 51, 61 and 85 against a panel of Clostridioides difficile strains was evaluated. A bacterial solution equivalent to 0.5 McFarland standard was prepared and diluted in brain heart infusion broth supplemented with hemin and vitamin K. Compounds and control drugs were added in the first row of 96-well plates and serially diluted with media containing bacteria (to achieve a concentration gradient ranging from 128 to 1 μg/mL). Plates were then incubated anaerobically at […] for 48 hours.

[2] = system: clinically important Clostridioides difficile strains; experiment: MIC against clinically important Clostridioides difficile strains; type: cell-based
Procedure: as §1

L. gasseri = experiment: MIC against human normal gut microbiota: L. gasseri; type: cell-based, Lactobacillus gasseri; settings: L. gasseri HM 407
Description: (§2) The activity of the selected lactones against the human gut microbiota was also examined. Microbiota interfere with C. difficile's ability to colonize the gastrointestinal tract and subsequently cause infection. Many antibiotics inhibit/kill the endogenous microflora, which permits enhanced colonization by C. difficile and infection. Three different bacterial species that are present in the gut microflora were used in this experiment; Bifidobacterium (anaerobic Gram-positive bacteria), Bacteroides (anaerobic Gram-negative bacteria) and Lactobacillus (microaerophilic Gram-positive bacteria). Ideal compounds/drugs are those with selective antibacterial activity against C. difficile so as to protect the indigenous microflora present in the GI tract from being damaged/killed (which will exacerbate infections caused by C. difficile).
(§3) Bifidobacterium and Bacteroides were first grown for 48 hours at 37° C., anaerobically, using brain heart infusion supplemented (BHIS) agar (brain heart infusion agar supplemented with hemin, vitamin K and L-cysteine). Lactobacillus was cultivated on MRS agar and incubated in the presence of 5% CO2 for 48 hours at 37° C. Each bacterium was suspended in phosphate-buffered saline (PBS) to achieve 0.5 McFarland standard and subsequently diluted in brain heart infusion supplemented broth (for Bifidobacterium and Bacteroides) or in MRS broth (for Lactobacillus) to achieve a bacterial inoculum of approximately 5×10^5 CFU/mL. Bacteria were then seeded in 96-well plates containing serial dilutions of the compounds and incubated for 48 hours. MICs reported in Table 4 are the minimum concentration of compound/control drug that inhibited the visual growth of bacteria.

L. casei = experiment: MIC against human normal gut microbiota: L. casei; type: cell-based, Lactobacillus casei; settings: L. casei HM 334
Description: as §2, §3

L. reuteri = experiment: MIC against human normal gut microbiota: L. reuteri; type: cell-based, Lactobacillus reuteri; settings: L. reuteri HM 120
Description: as §2, §3

L. crispatus = experiment: MIC against human normal gut microbiota: L. crispatus; type: cell-based, Lactobacillus crispatus
Description: as §2, §3

Ba. fragilis = experiment: MIC against human normal gut microbiota: Bacteroides fragilis; type: cell-based
Description: as §2, §3

Ba. dorsei = experiment: MIC against human normal gut microbiota: Bacteroides dorsei; type: cell-based
Description: as §2, §3

Bi. breve = experiment: MIC against human normal gut microbiota: Bifidobacterium breve; type: cell-based; settings: Bi. breve HM 856
Description: as §2, §3

Bi. longum = experiment: MIC against human normal gut microbiota: Bifidobacterium longum; type: cell-based; settings: Bi. longum HM 848
Description: as §2, §3

Clostridioides difficile [3] = settings: cited from earlier work
MRSA (USA300) = experiment: microbe, parasite or virus in culture; type: cell-based, Staphylococcus aureus; settings: aerobic, 37° C., at least 18 hours
Procedure: (§4) Method: The minimum inhibitory concentration (MIC) of the compounds and control drugs, linezolid (antibiotic), vancomycin (antibiotic), 5-fluorocytosine (5-FC, antifungal drug), and fluconazole (antifungal drug) was determined using the broth microdilution method according to the guidelines outlined by the Clinical and Laboratory Standards Institute (CLSI) against clinically relevant bacterial (methicillin-resistant Staphylococcus aureus (MRSA), vancomycin-resistant Enterococcus faecalis (VRE), vancomycin-resistant Enterococcus faecium (VRE), Clostridioides difficile and Escherichia coli) and fungal (Candida albicans) strains. A solution equivalent to 0.5 McFarland standard was prepared from each strain and diluted in cation-adjusted Mueller-Hinton broth (for S. aureus and E. coli), tryptone soy broth (for E. faecalis), or brain heart infusion broth (for E. faecium) to achieve a bacterial inoculum of about 5×10^5 CFU/mL. C. difficile strains were cultured in brain heart infusion broth supplemented with hemin and vitamin K. C. albicans was diluted in RPMI medium supplemented with 3-(N-morpholino) propanesulfonic acid to achieve a fungal concentration of about 1.5×10^3 CFU/mL. Compounds and control drugs were added in the first row of the 96-well plates and diluted with media containing bacteria (to achieve a concentration gradient ranging from 128 to 1 μg/mL). For MRSA, VRE, and E. coli strains, plates were then incubated aerobically at 37° C. for at least 18 hours. C. albicans was incubated aerobically at 37° C. for 24 hours. Plates containing C. difficile were incubated anaerobically at […] for 48 hours.

E. faecalis (VRE) = experiment: microbe, parasite or virus in culture; type: cell-based, Enterococcus faecalis; settings: aerobic, 37° C., at least 18 hours
Procedure: as §4

Clostridioides difficile [4] = experiment: MIC by broth microdilution against Clostridioides difficile (Table 1); type: cell-based; settings: anaerobic, 48 hours; strain BAA-1870
Procedure: as §4

E. coli (TolC mutant) = experiment: MIC by broth microdilution against E. coli (TolC mutant); type: cell-based, Escherichia coli; settings: aerobic, 37° C., at least 18 hours
Procedure: as §4

C. albicans = experiment: Broth microdilution against Candida albicans; type: cell-based; settings: gradient 128 to 1 μg/mL, 24 hours
Procedure: as §4

E. faecium = experiment: Broth microdilution against vancomycin-resistant E. faecium; type: cell-based, Enterococcus faecium; settings: gradient 128 to 1 μg/mL
Procedure: as §4

Compound: CCc1c(Cl)c(O)c(Cl)c(O)c1C(=O)O[C@H]1[C@H](O)[C@H](OC)[C@H](OC/C2=C\C=C\C[C@H](O)/C(C)=C/[C@H](CC)[C@@H](O[C@@H]3OC(C)(C)[C@@H](OC(=O)C(C)C)[C@H](O)[C@@H]3O)/C(C)=C/C(C)=C/C[C@@H]([C@@H](C)O)OC2=O)O[C@@H]1C [Fidaxomicin, fidaxomicin, reference compound]
- MIC ([1]; CD strain 84): 0/03
- MIC ([1]; Clostridioides difficile, CD strain 81): 0.03 µg/mL (≈ 0.0284 µM)
- MIC ([1]; Clostridioides difficile, CD strain 82): 0.3 µg/mL (≈ 0.284 µM)
- MIC ([1]; Clostridioides difficile, CD strain 83): 0.015 µg/mL (≈ 0.0142 µM)
- MIC ([1]; Clostridioides difficile, CD strain 85): 0.03 µg/mL (≈ 0.0284 µM)
- MIC ([1]; Clostridioides difficile, CD strain 86): 0.06 µg/mL (≈ 0.0567 µM)
- MIC ([1]; Clostridioides difficile, CD strain 87): 0.015 µg/mL (≈ 0.0142 µM)
- MIC ([1]; Clostridioides difficile, CD strain 90): ≤ 0.007 µg/mL
- MIC ([1]; Clostridioides difficile, CD strain 49279): ≤ 0.007 µg/mL
- MIC ([1]; Clostridioides difficile, CD strain 49287): ≤ 0.007 µg/mL
- MIC ([1]; Clostridioides difficile, CD strain 49291): ≤ 0.007 µg/mL
- MIC ([2]; Clostridioides difficile, CD strain 16, read-out: MIC): 0.015 µg/mL (≈ 0.0142 µM)
- MIC ([2]; Clostridioides difficile, CD strain 18, read-out: MIC): ≤ 0.007 µg/mL
- MIC ([2]; Clostridioides difficile, CD strain 19, read-out: MIC): 0.015 µg/mL (≈ 0.0142 µM)
- MIC ([2]; Clostridioides difficile, CD strain 1801, read-out: MIC): 0.015 µg/mL (≈ 0.0142 µM)
- MIC ([2]; Clostridioides difficile, CD strain 43255, read-out: MIC): 0.03 µg/mL (≈ 0.0284 µM)
- MIC ([2]; Clostridioides difficile, CD strain P6, read-out: MIC): ≤ 0.007 µg/mL
- MIC ([2]; Clostridioides difficile, CD strain P7, read-out: MIC): ≤ 0.007 µg/mL
- MIC ([2]; Clostridioides difficile, CD strain P13, read-out: MIC): ≤ 0.007 µg/mL
- MIC ([2]; Clostridioides difficile, CD strain P19, read-out: MIC): 0.03 µg/mL (≈ 0.0284 µM)
- MIC (L. gasseri; Lactobacillus gasseri, read-out: MIC): 1 µg/mL (≈ 0.945 µM)
- MIC (L. casei; Lacticaseibacillus casei, read-out: MIC): 2 µg/mL (≈ 1.89 µM)
- MIC (L. reuteri; Limosilactobacillus reuteri, read-out: MIC): 128 µg/mL (≈ 121 µM)
- MIC (L. crispatus; Lactobacillus crispatus, L. crispatus HM 375, read-out: MIC): ≤ 1 µg/mL
- MIC (L. crispatus; Lactobacillus crispatus, L. crispatus HM 421, read-out: MIC): 2 µg/mL (≈ 1.89 µM)
- MIC (Ba. fragilis; Ba. fragilis HM 710): >128 µg/mL
- MIC (Ba. fragilis; Ba. fragilis HM 711): >128 µg/mL
- MIC (Ba. fragilis; Ba. fragilis HM 714): >128 µg/mL
- MIC (Ba. fragilis; Bacteroides fragilis, Ba. fragilis HM 709, read-out: MIC): > 128 µg/mL
- MIC (Ba. dorsei; Ba. dorsei HM 717): >128 µg/mL
- MIC (Ba. dorsei; Bacteroides, Ba. dorsei HM 29, read-out: MIC): > 128 µg/mL
- MIC (Bi. breve; Bifidobacterium breve, read-out: MIC): > 128 µg/mL
- MIC (Bi. longum; Bifidobacterium longum, read-out: MIC): 32 µg/mL (≈ 30.2 µM)
- recurrence rate (Clostridioides difficile [3]; infections involving the hypervirulent strains): 24%
- recurrence rate (Clostridioides difficile [3]; patients treated for an episode of recurrent C. difficile-associated diarrhea): 20%

Compound: C=C1C(=O)OC(CCCCCCCC)C1C=Cc1ccccc1 (racemic) [Compound 51]
- MIC MRSA (USA300) (MRSA (USA300)): >128 µg/mL
- MIC E. faecalis (VRE) (E. faecalis (VRE)): >128 µg/mL
- MIC Clostridioides difficile (Clostridioides difficile [4]): 8 µg/mL (≈ 25.6 µM)
- MIC E. coli (TolC mutant) (E. coli (TolC mutant)): >128 µg/mL
- MIC ([1]; CD strain 81): 16 µg/mL (≈ 51.2 µM)
- MIC ([1]; CD strain 82): 16 µg/mL (≈ 51.2 µM)
- MIC ([1]; CD strain 83): 16 µg/mL (≈ 51.2 µM)
- MIC ([1]; CD strain 84): 64 µg/mL (≈ 205 µM)
- MIC ([1]; CD strain 85): 64 µg/mL (≈ 205 µM)
- MIC ([1]; CD strain 86): 32 µg/mL (≈ 102 µM)
- MIC ([1]; CD strain 87): 32 µg/mL (≈ 102 µM)
- MIC ([1]; CD strain 90): 4 µg/mL (≈ 12.8 µM)
- MIC ([1]; CD strain 49279): 16 µg/mL (≈ 51.2 µM)
- MIC ([1]; CD strain 49287): 8 µg/mL (≈ 25.6 µM)
- MIC ([1]; CD strain 49291): 8 µg/mL (≈ 25.6 µM)
- MIC ([2]; CD strain 16): 16 µg/mL (≈ 51.2 µM)
- MIC ([2]; CD strain 18): 2 µg/mL (≈ 6.4 µM)
- MIC ([2]; CD strain 19): 16 µg/mL (≈ 51.2 µM)
- MIC ([2]; CD strain 1801): 32 µg/mL (≈ 102 µM)
- MIC ([2]; CD strain 43255): 16 µg/mL (≈ 51.2 µM)
- MIC ([2]; CD strain P6): 8 µg/mL (≈ 25.6 µM)
- MIC ([2]; CD strain P7): 16 µg/mL (≈ 51.2 µM)
- MIC ([2]; CD strain P13): 2 µg/mL (≈ 6.4 µM)
- MIC ([2]; CD strain P19): 16 µg/mL (≈ 51.2 µM)
- MIC (L. gasseri): >128 µg/mL
- MIC (L. casei): >128 µg/mL
- MIC (L. reuteri): >128 µg/mL
- MIC (L. crispatus; L. crispatus HM 375): >128 µg/mL
- MIC (L. crispatus; L. crispatus HM 421): >128 µg/mL
- MIC (Ba. fragilis; Ba. fragilis HM 709): >128 µg/mL
- MIC (Ba. fragilis; Ba. fragilis HM 710): >128 µg/mL
- MIC (Ba. fragilis; Ba. fragilis HM 711): >128 µg/mL
- MIC (Ba. fragilis; Ba. fragilis HM 714): >128 µg/mL
- MIC (Ba. dorsei; Ba. dorsei HM 29): >128 µg/mL
- MIC (Ba. dorsei; Ba. dorsei HM 717): >128 µg/mL
- MIC (Bi. breve): >128 µg/mL
- MIC (Bi. longum): >128 µg/mL
- activity against C. albicans (C. albicans): inactive
- inhibition of the tested strains of E. faecium (E. faecium): did not inhibit
